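Cells were grown in 96-well plates and exposed to each compound for 48 hours at five concentrations; endpoints were interpolated linearly between bracketing concentrations, or set to the highest concentration if not reached. GI50: concentration for 50% inhibition of growth.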 The source made the active and inactive calls. Cut-off read from the data, not from the text of the source: active = GI50 up to about 1.1 µM and inactive = higher.
Key:
Assay in all cases: growth of human tumour cells (NCI), 48 h
COLO 205 = system: COLO 205
HT-29 = system: HT-29
IGROV-1 = system: IGROV-1
KM12 = system: KM12
OVCAR-3 = system: OVCAR-3
OVCAR-5 = system: OVCAR-5
RPMI-8226 = system: RPMI-8226
SF-539 = system: SF-539
SK-MEL-5 = system: SK-MEL-5
SK-OV-3 = system: SK-OV-3
SNB-19 = system: SNB-19
SR = system: SR
TK-10 = system: TK-10
M14 = system: M14
NCI-H460 = system: NCI-H460
SW-620 = system: SW-620

| SMILES | GI50 (COLO 205) | GI50 (HT-29) | GI50 (IGROV-1) | GI50 (KM12) | GI50 (OVCAR-3) | GI50 (OVCAR-5) | GI50 (RPMI-8226) | GI50 (SF-539) | GI50 (SK-MEL-5) | GI50 (SK-OV-3) | GI50 (SNB-19) | GI50 (SR) | GI50 (TK-10) | GI50 (M14) | GI50 (NCI-H460) | GI50 (SW-620) |
| --- | --- | --- | --- | --- | --- | --- | --- | --- | --- | --- | --- | --- | --- | --- | --- | --- |
| COc1cc2ccc3c4c(OC)cc(OC)c(OC)c4c([O-])[n+](C)c3c2cc1OC | 2.58 µM (inactive) | 6.47 µM (inactive) | 6.98 µM (inactive) | 4.37 µM (inactive) | 7.13 µM (inactive) | 11.1 µM (inactive) | 0.368 µM (active) | > 32.7 µM (inactive) | 9.02 µM (inactive) | > 33 µM (inactive) | 15.7 µM (inactive) | 0.759 µM (active) | > 40.3 µM (inactive) | – | – | – |
| CC(=O)NNc1nc(C)c(C(=O)NNC(=O)C(=O)Nc2ccc(Cl)cc2)s1 | > 100 µM (inactive) | > 100 µM (inactive) | > 100 µM (inactive) | > 100 µM (inactive) | 28.9 µM (inactive) | > 100 µM (inactive) | > 100 µM (inactive) | > 100 µM (inactive) | > 100 µM (inactive) | > 100 µM (inactive) | > 100 µM (inactive) | 68.5 µM (inactive) | > 100 µM (inactive) | > 100 µM (inactive) | > 100 µM (inactive) | 54.6 µM (inactive) |
| CCCn1cc2c(SC)nc(SC)nc2n1 | > 100 µM (inactive) | > 100 µM (inactive) | > 100 µM (inactive) | > 100 µM (inactive) | – | > 100 µM (inactive) | > 100 µM (inactive) | > 100 µM (inactive) | > 100 µM (inactive) | – | > 100 µM (inactive) | > 100 µM (inactive) | > 100 µM (inactive) | > 100 µM (inactive) | > 100 µM (inactive) | > 100 µM (inactive) |
| O=C1C(=O)N(c2cc(Cl)ccc2Cl)C(=O)C(=O)C1c1nc2ccccc2o1 | > 100 µM (inactive) | > 100 µM (inactive) | > 100 µM (inactive) | > 31.6 µM (inactive) | > 67.5 µM (inactive) | > 100 µM (inactive) | > 100 µM (inactive) | > 100 µM (inactive) | > 100 µM (inactive) | > 100 µM (inactive) | > 100 µM (inactive) | – | > 100 µM (inactive) | > 91.8 µM (inactive) | > 100 µM (inactive) | > 100 µM (inactive) |
| C1=CC(=NN=P(c2ccccc2)(c2ccccc2)c2ccccc2)C=C1 | > 100 µM (inactive) | > 100 µM (inactive) | > 100 µM (inactive) | > 100 µM (inactive) | > 100 µM (inactive) | > 100 µM (inactive) | > 100 µM (inactive) | – | > 100 µM (inactive) | > 100 µM (inactive) | > 100 µM (inactive) | – | > 100 µM (inactive) | > 100 µM (inactive) | > 100 µM (inactive) | > 100 µM (inactive) |
| CN(C)/C(=N\C#N)N(Cc1ccccc1)Cc1ccccc1 | 74 µM (inactive) | 50.9 µM (inactive) | > 100 µM (inactive) | > 100 µM (inactive) | > 100 µM (inactive) | > 100 µM (inactive) | 32.5 µM (inactive) | > 100 µM (inactive) | > 100 µM (inactive) | > 100 µM (inactive) | > 100 µM (inactive) | – | > 100 µM (inactive) | > 100 µM (inactive) | 17.7 µM (inactive) | 17.9 µM (inactive) |
| C1CCN2CC3CONC3C2C1 (stereo unspecified) | > 100 µM (inactive) | > 100 µM (inactive) | > 100 µM (inactive) | > 100 µM (inactive) | > 100 µM (inactive) | > 100 µM (inactive) | > 100 µM (inactive) | > 100 µM (inactive) | > 100 µM (inactive) | – | > 100 µM (inactive) | – | > 100 µM (inactive) | > 100 µM (inactive) | > 100 µM (inactive) | > 100 µM (inactive) |
| c1ccc(N2N=C(c3ccco3)CC2c2ccco2)cc1 (stereo unspecified) | > 100 µM (inactive) | 75.9 µM (inactive) | > 100 µM (inactive) | 47.4 µM (inactive) | 59.6 µM (inactive) | > 100 µM (inactive) | 35.2 µM (inactive) | > 100 µM (inactive) | 51.4 µM (inactive) | – | > 100 µM (inactive) | 30.3 µM (inactive) | > 100 µM (inactive) | > 100 µM (inactive) | 66.1 µM (inactive) | > 100 µM (inactive) |
| C#C[C@H]1CCCCCC1O (stereo partly specified) | > 100 µM (inactive) | > 100 µM (inactive) | > 100 µM (inactive) | > 100 µM (inactive) | > 100 µM (inactive) | > 100 µM (inactive) | – | > 100 µM (inactive) | > 100 µM (inactive) | > 100 µM (inactive) | > 100 µM (inactive) | 97.7 µM (inactive) | > 100 µM (inactive) | > 100 µM (inactive) | > 100 µM (inactive) | 23.3 µM (inactive) |
| COCC1N=C(c2ccc(OC)c(OCc3ccccc3)c2OC)O[C@H]1c1ccccc1 (stereo partly specified) | 18.1 µM (inactive) | 19.8 µM (inactive) | 32.4 µM (inactive) | 21.2 µM (inactive) | 16 µM (inactive) | 25 µM (inactive) | 5.65 µM (inactive) | 17.4 µM (inactive) | 11.9 µM (inactive) | 46.6 µM (inactive) | 29.9 µM (inactive) | – | 35.2 µM (inactive) | 14.6 µM (inactive) | 11.1 µM (inactive) | 34.8 µM (inactive) |
